Test results: paper PMC6767204, “Synthesis and Biological Evaluation of Disubstituted Pyrimidines as Selective 5-HT2C Agonists” (Molecules, 2019)

Experiments:
[1] = target: T1, 5-HT1E receptor (Homo sapiens, UniProt P28566); assay: 5-HT receptor radioligand binding affinity assay, 1E
T1 construct: expressed in transfected cells; host or cells: HEK293 or CHO
Procedure: (§1) Eleven dilutions (5 x assay concentration) of the test and reference compounds (Table S1) were prepared in standard binding buffer (50 mM tris(hydroxymethyl)-aminomethane–HCl (Tris-HCl), 10 mM MgCl2, 1 mM ethylenediaminetetraacetate (EDTA), pH 7.4) by serial dilution: 0.05 nM, 0.5 nM, 1.5 nM, 5 nM, 15 nM, 50 nM, 150 nM, 500 nM, 1.5 μM, 5 μM, and 50 μM. The radioligand (Table S1) was diluted to five times the assay concentration in standard binding buffer. Aliquots (50 μL) of the radioligand were dispensed into the wells of a 96-well plate containing 100 μL of standard binding buffer. Triplicate aliquots (50 μL) of the test and reference compound dilutions were then added. Finally, crude membrane fractions (50 μL) of cells (HEK293 or CHO) expressing human recombinant receptors were dispensed into each well. A total 250 μL of the reaction mixtures was incubated at room temperature and shielded from light for 1.5 h, then harvested by rapid filtration onto Whatman GF/B glass fiber filters presoaked with 0.3% polyethyleneimine, by using a 96-well Brandel harvester.
(§2) Four rapid washes were performed with chilled standard binding buffer (500 μL) to decrease nonspecific binding. Filters were placed in 6 mL scintillation tubes and allowed to dry overnight. The next day, 4 ml of EcoScint scintillation cocktail (National Diagnostics) was added to each tube. The tubes were capped, labeled, and counted by liquid scintillation counting. The filter mats were dried, and the scintillant was melted onto the filters, then the radioactivity retained on the filters was counted in a Microbeta scintillation counter. The IC50 values were obtained by using the Prism 4.0 program (GraphPad Software, San Diego, CA) and converted into Ki values. Each compound was tested in triplicate at least.
(§3) 3. Radioligands and reference compounds for binding assay
(§4) Table S1. A list of 5-HT receptor radioligands and reference compounds for binding assay. […]

[2] = target: T2, 5-HT2C receptor (Homo sapiens, UniProt P28335); assay: 5-HT receptor radioligand binding affinity assay, 2C; set-up: expressed in transfected cells
T2 sequence (P28335 33-458): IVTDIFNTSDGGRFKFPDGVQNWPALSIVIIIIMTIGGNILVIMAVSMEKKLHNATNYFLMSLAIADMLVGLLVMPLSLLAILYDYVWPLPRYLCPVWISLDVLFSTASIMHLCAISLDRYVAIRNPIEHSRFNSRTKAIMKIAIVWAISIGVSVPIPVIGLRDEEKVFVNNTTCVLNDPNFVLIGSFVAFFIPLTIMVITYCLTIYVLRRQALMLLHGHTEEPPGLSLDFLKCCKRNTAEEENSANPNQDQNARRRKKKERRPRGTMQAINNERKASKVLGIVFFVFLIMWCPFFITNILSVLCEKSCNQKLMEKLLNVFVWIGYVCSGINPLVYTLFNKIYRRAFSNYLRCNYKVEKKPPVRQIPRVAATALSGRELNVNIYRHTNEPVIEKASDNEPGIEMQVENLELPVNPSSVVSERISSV
Procedure: as §1, §2, §3
(§5) Table S1. A list of 5-HT receptor radioligands and reference compounds for binding assay.
(§6) Receptor subtype Radioligand Reference compound
(§7) 1A [3H]8-OH-DPAT Methysergide
(§8) 2A [3H]Ketanserin Chlorpromazine
(§9) 2C [3H]Mesulergine Chlorpromazine

[3] = target: T3, 5-HT1A receptor (Homo sapiens, UniProt P08908); assay: 5-HT receptor radioligand binding affinity assay, 1A
T3 construct: expressed in transfected cells; host or cells: HEK293 or CHO
T3 sequence (P08908 1-422): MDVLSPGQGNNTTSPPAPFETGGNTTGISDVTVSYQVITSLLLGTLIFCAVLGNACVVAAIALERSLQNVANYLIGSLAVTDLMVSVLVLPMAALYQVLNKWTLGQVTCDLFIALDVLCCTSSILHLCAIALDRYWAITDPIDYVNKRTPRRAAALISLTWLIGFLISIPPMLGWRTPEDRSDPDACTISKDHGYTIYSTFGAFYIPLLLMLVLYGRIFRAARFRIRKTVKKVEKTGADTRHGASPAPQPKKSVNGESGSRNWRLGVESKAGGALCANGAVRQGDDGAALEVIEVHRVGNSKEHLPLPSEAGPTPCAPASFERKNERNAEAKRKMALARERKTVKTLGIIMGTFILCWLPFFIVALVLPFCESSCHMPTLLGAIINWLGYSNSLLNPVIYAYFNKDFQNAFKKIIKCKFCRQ
Procedure: as §1, §2, §3, §5, §6, §7, §8, §9

[4] = target: T4, 5-HT3 receptor (Homo sapiens, UniProt P46098); assay: 5-HT receptor radioligand binding affinity assay, 3
T4 construct: expressed in transfected cells; host or cells: HEK293 or CHO
T4 sequence (P46098 24-478): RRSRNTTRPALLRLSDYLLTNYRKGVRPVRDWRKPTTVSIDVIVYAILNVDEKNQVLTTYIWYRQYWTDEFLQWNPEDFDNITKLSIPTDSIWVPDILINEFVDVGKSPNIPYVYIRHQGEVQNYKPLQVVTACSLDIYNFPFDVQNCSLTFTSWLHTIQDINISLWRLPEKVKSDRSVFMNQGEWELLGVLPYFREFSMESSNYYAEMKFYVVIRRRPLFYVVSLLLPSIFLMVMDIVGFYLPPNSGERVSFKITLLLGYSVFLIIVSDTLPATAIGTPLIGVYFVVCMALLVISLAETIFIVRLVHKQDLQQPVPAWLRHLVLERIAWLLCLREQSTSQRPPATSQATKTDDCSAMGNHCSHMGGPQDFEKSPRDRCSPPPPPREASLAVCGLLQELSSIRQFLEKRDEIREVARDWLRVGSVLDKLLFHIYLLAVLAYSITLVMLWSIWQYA
Procedure: as §1, §2, §3, §5, §6, §7, §8, §9

[5] = Plasma stability; assay type: in vitro ADME; conditions: human plasma, 37 °C
[6] = target: T5, 5-HT2A receptor (Homo sapiens, UniProt P28223); assay: 5-HT receptor radioligand binding affinity assay, 2A
T5 construct: expressed in transfected cells; host or cells: HEK293 or CHO
T5 sequence (P28223 whole entry): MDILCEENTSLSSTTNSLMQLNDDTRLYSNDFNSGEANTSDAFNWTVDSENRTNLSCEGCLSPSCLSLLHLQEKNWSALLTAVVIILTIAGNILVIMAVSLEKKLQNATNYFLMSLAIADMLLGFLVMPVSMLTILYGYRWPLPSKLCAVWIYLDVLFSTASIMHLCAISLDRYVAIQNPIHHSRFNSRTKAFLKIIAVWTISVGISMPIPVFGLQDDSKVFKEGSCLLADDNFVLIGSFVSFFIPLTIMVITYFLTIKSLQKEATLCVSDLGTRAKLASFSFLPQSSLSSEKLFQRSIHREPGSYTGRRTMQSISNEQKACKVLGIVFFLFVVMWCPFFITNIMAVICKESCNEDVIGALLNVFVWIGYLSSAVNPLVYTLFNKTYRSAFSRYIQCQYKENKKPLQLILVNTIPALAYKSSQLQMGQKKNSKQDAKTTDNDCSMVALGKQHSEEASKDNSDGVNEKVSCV
Procedure: as §1, §2, §3, §5, §6, §7, §8, §9

[7] = target: T6, 5-HT7 receptor (Homo sapiens, UniProt P34969); assay: 5-HT receptor radioligand binding affinity assay, 7
T6 construct: expressed in transfected cells; host or cells: HEK293 or CHO
T6 sequence (P34969 whole entry): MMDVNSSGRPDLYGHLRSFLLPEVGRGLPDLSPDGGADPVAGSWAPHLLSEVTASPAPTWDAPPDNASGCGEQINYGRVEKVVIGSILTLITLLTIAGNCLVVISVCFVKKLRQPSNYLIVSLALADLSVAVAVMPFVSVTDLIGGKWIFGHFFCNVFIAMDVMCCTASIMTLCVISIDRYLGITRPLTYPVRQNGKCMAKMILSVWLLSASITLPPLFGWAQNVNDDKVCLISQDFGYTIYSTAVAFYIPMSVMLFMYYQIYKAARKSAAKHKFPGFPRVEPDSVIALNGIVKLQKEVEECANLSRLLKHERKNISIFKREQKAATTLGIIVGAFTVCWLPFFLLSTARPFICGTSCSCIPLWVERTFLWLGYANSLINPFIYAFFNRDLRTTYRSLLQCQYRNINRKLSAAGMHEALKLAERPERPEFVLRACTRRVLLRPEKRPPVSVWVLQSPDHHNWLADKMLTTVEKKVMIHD
Procedure: as §1, §2, §3, §5, §6, §7, §8, §9

[8] = target: T7, 5-HT6 receptor (Homo sapiens, UniProt P50406); assay: 5-HT receptor radioligand binding affinity assay, 6
T7 construct: expressed in transfected cells; host or cells: HEK293 or CHO
T7 sequence (P50406 whole entry): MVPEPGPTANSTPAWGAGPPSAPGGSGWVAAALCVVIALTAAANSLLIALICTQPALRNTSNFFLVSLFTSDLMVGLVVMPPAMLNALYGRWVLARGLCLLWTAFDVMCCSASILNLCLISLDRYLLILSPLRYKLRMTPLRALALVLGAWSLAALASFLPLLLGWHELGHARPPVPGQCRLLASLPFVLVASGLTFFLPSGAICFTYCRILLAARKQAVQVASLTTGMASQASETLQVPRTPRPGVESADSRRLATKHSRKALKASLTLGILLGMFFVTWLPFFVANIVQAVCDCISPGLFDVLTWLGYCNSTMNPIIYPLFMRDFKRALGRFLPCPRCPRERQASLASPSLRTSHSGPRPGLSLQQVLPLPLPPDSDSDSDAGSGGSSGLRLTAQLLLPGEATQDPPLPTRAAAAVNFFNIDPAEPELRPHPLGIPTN
Procedure: as §1, §2, §3, §5, §6, §7, §8, §9

[9] = target: T2, 5-HT2C receptor; assay: 5-HT2C receptor cell-based functional assay (agonist mode, fluorescence-based); conditions: Table 2; serotonin as reference compound
Procedure: The synthesized compounds were tested in agonist mode with the 5-HT2C receptor assay using recombinant human HEK-293 cells serviced by either Eurofins Cerep or DGMIF (Daegu-Gyeongbuk Medical Innovation Foundation). All the experiments were duplicated.

[10] = target: T8, 5-HT1D receptor (Homo sapiens, UniProt P28221); assay: 5-HT receptor radioligand binding affinity assay, 1D
T8 construct: expressed in transfected cells; host or cells: HEK293 or CHO
T8 sequence (P28221 whole entry): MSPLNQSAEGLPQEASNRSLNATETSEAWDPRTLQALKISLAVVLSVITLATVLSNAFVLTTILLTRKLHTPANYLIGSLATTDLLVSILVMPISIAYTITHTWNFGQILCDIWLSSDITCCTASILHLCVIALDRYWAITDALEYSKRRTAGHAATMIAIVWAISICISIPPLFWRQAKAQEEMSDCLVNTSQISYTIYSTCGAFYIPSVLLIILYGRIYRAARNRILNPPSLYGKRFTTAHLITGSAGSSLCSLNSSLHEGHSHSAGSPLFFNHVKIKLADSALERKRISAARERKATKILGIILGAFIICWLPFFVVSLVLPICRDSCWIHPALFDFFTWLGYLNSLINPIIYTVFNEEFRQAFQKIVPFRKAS
Procedure: as §1, §2, §3, §5, §6, §7, §8, §9

[11] = test system: five human CYP450 isozymes; assay: CYP inhibition, all tested isozymes; conditions: all the tested CYP isozymes
Procedure: CYP inhibition values against five human CYP450 isozymes were recorded as % remaining activity values of the given isozymes.
After incubation at 37 °C for 5 min, NADPH generation system solution was also added and incubated at 37 °C for 15 min again. To terminate the reaction, acetonitrile including internal standard (Terfenadine) was added, and the solution was centrifuged for 5 min (14,000 rpm, 4 °C).

[12] = Microsomal stability; assay type: in vitro ADME; conditions: pH 7.4, human liver microsomes, read-out: HLM %Remaining @ 1 μM after 0.5 h
Procedure: To human liver microsomes (0.5 mg/mL) were added 0.1 M phosphate buffer (pH 7.4) and tested compounds (1 μM).

[13] = target: T9, 5-HT2B receptor (Homo sapiens, UniProt P41595); assay: 5-HT receptor radioligand binding affinity assay, 2B
T9 construct: expressed in transfected cells; host or cells: HEK293 or CHO
T9 sequence (P41595 whole entry): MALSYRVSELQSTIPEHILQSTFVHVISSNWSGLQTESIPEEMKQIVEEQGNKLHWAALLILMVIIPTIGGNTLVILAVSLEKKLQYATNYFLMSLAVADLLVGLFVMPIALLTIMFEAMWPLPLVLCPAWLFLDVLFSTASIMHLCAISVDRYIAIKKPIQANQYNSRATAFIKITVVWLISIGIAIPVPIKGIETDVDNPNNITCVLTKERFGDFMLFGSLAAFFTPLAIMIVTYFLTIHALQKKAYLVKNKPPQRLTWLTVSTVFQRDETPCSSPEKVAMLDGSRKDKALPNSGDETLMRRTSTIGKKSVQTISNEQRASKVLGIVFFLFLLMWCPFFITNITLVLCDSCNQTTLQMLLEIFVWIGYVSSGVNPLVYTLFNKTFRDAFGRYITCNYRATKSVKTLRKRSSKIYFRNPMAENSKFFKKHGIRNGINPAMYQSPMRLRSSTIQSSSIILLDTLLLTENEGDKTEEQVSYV
Procedure: as §1, §2, §3, §5, §6, §7, §8, §9

[14] = target: T10, 5-HT1B receptor (Homo sapiens, UniProt P28222); assay: 5-HT receptor radioligand binding affinity assay, 1B
T10 construct: expressed in transfected cells; host or cells: HEK293 or CHO
T10 sequence (P28222 whole entry): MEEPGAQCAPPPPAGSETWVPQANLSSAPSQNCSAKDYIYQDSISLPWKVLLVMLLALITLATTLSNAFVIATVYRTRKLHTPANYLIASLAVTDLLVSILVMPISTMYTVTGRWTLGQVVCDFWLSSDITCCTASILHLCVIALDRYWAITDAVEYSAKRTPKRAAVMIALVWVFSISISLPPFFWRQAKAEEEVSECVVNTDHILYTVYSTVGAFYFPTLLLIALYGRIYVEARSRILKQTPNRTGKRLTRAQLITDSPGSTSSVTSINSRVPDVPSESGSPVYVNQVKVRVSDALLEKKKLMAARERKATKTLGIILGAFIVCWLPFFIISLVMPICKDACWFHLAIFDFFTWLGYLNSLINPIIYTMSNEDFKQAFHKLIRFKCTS

[15] = target: T11, 5-HT5A receptor (Homo sapiens, UniProt P47898); assay: 5-HT receptor radioligand binding affinity assay, 5A
T11 construct: expressed in transfected cells; host or cells: HEK293 or CHO
T11 sequence (P47898 whole entry): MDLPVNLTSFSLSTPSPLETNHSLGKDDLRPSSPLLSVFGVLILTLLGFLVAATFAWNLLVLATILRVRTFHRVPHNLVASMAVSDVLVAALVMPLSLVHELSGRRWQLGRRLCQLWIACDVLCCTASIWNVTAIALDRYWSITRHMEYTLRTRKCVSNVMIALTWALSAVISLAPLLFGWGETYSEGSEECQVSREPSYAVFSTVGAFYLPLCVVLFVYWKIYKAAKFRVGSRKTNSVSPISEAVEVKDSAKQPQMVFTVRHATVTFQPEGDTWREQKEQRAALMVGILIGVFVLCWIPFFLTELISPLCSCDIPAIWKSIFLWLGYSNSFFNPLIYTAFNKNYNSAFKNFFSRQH
Procedure: as §1, §2, §3, §4

[16] = subtype Ki divided by 5-HT2C Ki

T1 sequence (P28566 whole entry): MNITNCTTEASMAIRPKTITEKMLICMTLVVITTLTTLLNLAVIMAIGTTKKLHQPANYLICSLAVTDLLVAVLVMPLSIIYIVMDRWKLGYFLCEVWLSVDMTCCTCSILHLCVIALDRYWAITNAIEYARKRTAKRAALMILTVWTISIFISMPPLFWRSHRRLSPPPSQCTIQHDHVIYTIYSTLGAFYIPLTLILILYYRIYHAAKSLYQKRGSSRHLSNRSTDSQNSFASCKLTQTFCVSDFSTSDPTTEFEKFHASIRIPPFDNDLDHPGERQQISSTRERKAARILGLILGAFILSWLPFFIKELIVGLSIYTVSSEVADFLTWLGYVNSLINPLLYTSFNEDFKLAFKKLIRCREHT

C[C@@H](Oc1nc(N2CCCNCC2)ncc1F)c1cccc(F)c1 [10a, (R)-1-(5-fluoro-4-(1-(3-fluorophenyl)ethoxy)pyrimidin-2-yl)-1,4-diazepane]
%Binding at 10 μM, 1E [1]: 43.1 /ND^b %
%Binding at 10 μM, 2C ([2]; 10 μM, Table 3): 81.3%
selectivity for other 5-HT receptor subtypes, difference in potency ([2]; 5-HT2C versus other 5-HT receptor subtypes): greater than 10 fold
%binding ([2]; Table 2): 81.3%
Ki ([2]; Table 2): 7.9 nM
SI, selectivity index, 2C [2, 16]: 1.0
Ki [3]: 578 nM
%Binding at 10 μM, 1A ([3]; 10 μM): 74.1%
SI, selectivity index, 1A [3, 16]: 73.2
Ki [4]: 323 nM
%Binding at 10 μM, 3 ([4]; 10 μM): 89.0%
SI, selectivity index, 3 [4, 16]: 40.9
remaining at 0.5 h, 10 μM ([5]; 0.5 h, read-out: Plasma Stability %Remaining @ 10 μM after 0.5 h): 99.9%
remaining at 2 h, 10 μM ([5]; 2 h, read-out: Plasma Stability %Remaining @ 10 μM after 2 h): 98%
Ki [6]: 1280 nM
%Binding at 10 μM, 2A ([6]; 10 μM): 75.5%
SI, selectivity index, 2A [6, 16]: 162.5
Ki [7]: 1020 nM
%Binding at 10 μM, 7 ([7]; 10 μM): 61.3%
SI, selectivity index, 7 [7, 16]: 128.6
Ki [8]: 348 nM
%Binding at 10 μM, 6 ([8]; 10 μM): 50.7%
SI, selectivity index, 6 [8, 16]: 44.1
%activation [9]: 81.0%
Ki [10]: 679 nM
%Binding at 10 μM, 1D ([10]; 10 μM): 71.4%
SI, selectivity index, 1D [10, 16]: 85.9
%remaining activity of isozymes [11]: > 60%
remaining at 0.5 h, 1 μM [12]: 96.6%
Ki [13]: 83 nM
%Binding at 10 μM, 2B ([13]; 10 μM): 98.0%
SI, selectivity index, 2B [13, 16]: 10.5
Ki [14]: 3240 nM
%Binding at 10 μM, 1B ([14]; 10 μM): 56.1%
SI, selectivity index, 1B [14, 16]: 409.7
%Binding at 10 μM, 5A [15]: 22.5 /ND %
